Assay results: the supplement of paper PMC10307832

Experiments:
Experiment in all cases: relative viability (nuclei count vs DMSO), 5 days (fraction); higher = more cells survive
[1] = compound: C1=CC2=NC=CN=C2C=C1/C=C/3\C(=O)NC(=O)S3 + COc1cccc2cc(-c3nc([C@H]4CC[C@H](C(=O)O)CC4)n4ncnc(N)c34)[nH]c12 [OSI-027] (partner 0.5 µM)
Method in brief: (§1)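 Relative viability is defined as nuclei in treated wells over nuclei in vehicle wells. Duplicate plates were run and medians reported. Lung cancer cell lines in 1536-well plates were dosed by pin tool one day after seeding, with one drug or with a fixed anchor-drug dose plus five library-drug doses (not always all listed) in √10 steps, and nuclei were counted after 5 days.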

[2] = compound: C1=CC2=NC=CN=C2C=C1/C=C/3\C(=O)NC(=O)S3 + CS(=O)(=O)N1CCN(Cc2cc3nc(-c4cccc5[nH]ncc45)nc(N4CCOCC4)c3s2)CC1 [Pictilisib] (partner 1 µM)
Method in brief: as §1

[3] = compound: C1=CC2=NC=CN=C2C=C1/C=C/3\C(=O)NC(=O)S3 + C[C@]1(O)C[C@@H](c2nc(-c3ccc4ccc(-c5ccccc5)nc4c3)c3c(N)nccn32)C1 [Linsitinib] (partner 1 µM)
Method in brief: as §1

[4] = compound: C1=CC2=NC=CN=C2C=C1/C=C/3\C(=O)NC(=O)S3 + Cc1cc(Nc2cc(N3CCN(C)CC3)nc(Sc3ccc(NC(=O)C4CC4)cc3)n2)n[nH]1 [Tozasertib] (partner 0.1 µM)
Method in brief: as §1

| Cell Line | relative viability ([1]; first compound 0.02 µM) | relative viability ([1]; first compound 0.06325 µM) | relative viability ([1]; first compound 0.2 µM) | relative viability ([1]; first compound 0.6325 µM) | relative viability ([1]; first compound 2 µM) | relative viability ([2]; first compound 0.02 µM) | relative viability ([2]; first compound 0.06325 µM) | relative viability ([2]; first compound 0.2 µM) | relative viability ([2]; first compound 0.6325 µM) | relative viability ([2]; first compound 2 µM) | relative viability ([3]; first compound 0.02 µM) | relative viability ([3]; first compound 0.06325 µM) | relative viability ([3]; first compound 0.2 µM) | relative viability ([3]; first compound 0.6325 µM) | relative viability ([3]; first compound 2 µM) | relative viability ([4]; first compound 0.02 µM) | relative viability ([4]; first compound 0.06325 µM) | relative viability ([4]; first compound 0.2 µM) | relative viability ([4]; first compound 0.6325 µM) | relative viability ([4]; first compound 2 µM) |
| --- | --- | --- | --- | --- | --- | --- | --- | --- | --- | --- | --- | --- | --- | --- | --- | --- | --- | --- | --- | --- |
| LU99A | 0.298 | 0.332 | 0.295 | 0.293 | 0.218 | 0.33 | 0.365 | 0.317 | 0.341 | 0.245 | 0.597 | 0.559 | 0.561 | 0.5 | 0.475 | 0.264 | 0.284 | 0.238 | 0.308 | 0.251 |
| LXF-289 | 0.744 | 0.756 | 0.788 | 0.804 | 0.395 | 0.723 | 0.843 | 0.801 | 0.771 | 0.635 | 0.928 | 0.921 | 0.993 | 0.941 | 0.933 | 0.186 | 0.147 | 0.185 | 0.185 | 0.168 |
| NCI-H23 | 0.518 | 0.58 | 0.661 | 0.618 | 0.27 | 0.396 | 0.688 | 0.557 | 0.517 | 0.504 | 0.575 | 0.649 | 0.717 | 0.588 | 0.603 | 0.337 | 0.314 | 0.363 | 0.401 | 0.329 |
| NCI-H322M | 0.546 | 0.478 | 0.497 | 0.53 | 0.384 | 0.477 | 0.476 | 0.586 | 0.518 | 0.434 | 1.06 | 0.85 | 0.982 | 0.896 | 0.918 | 0.523 | 0.466 | 0.482 | 0.461 | 0.425 |
| NCI-H358 | 0.869 | 0.753 | 0.768 | 0.623 | 0.228 | 0.357 | 0.344 | 0.402 | 0.38 | 0.258 | 0.776 | 0.764 | 0.754 | 0.647 | 0.74 | 0.1 | 0.11 | 0.0984 | 0.127 | 0.0886 |
| NCI-H441 | 0.742 | 0.695 | 0.759 | 0.669 | 0.405 | 0.453 | 0.48 | 0.447 | 0.573 | 0.477 | 0.473 | 0.399 | 0.653 | 0.57 | 0.508 | 0.661 | 0.828 | 0.743 | 0.62 | 0.366 |
| NCI-H460 | 0.727 | 1 | 0.781 | 0.525 | 0.394 | 0.376 | 0.281 | 0.338 | 0.324 | 0.199 | 0.718 | 1.32 | 0.787 | 0.687 | 0.872 | 0.411 | 0.262 | 0.441 | 0.392 | 0.395 |
| NCI-H520 | 0.25 | 0.356 | 0.249 | 0.27 | 0.36 | 0.306 | 0.356 | 0.32 | 0.242 | 0.246 | 0.931 | 1.15 | 1.11 | 0.969 | 1.03 | 0.394 | 0.378 | 0.451 | 0.416 | 0.458 |
| NCI-H596 | 0.749 | 0.542 | 0.875 | 0.677 | 0.532 | 0.465 | 0.384 | 0.394 | 0.419 | 0.377 | 1.01 | 0.994 | 1.11 | 0.975 | 1.07 | 0.934 | 0.951 | 1.1 | 0.733 | 0.902 |
| NCI-H647 | 0.531 | 0.84 | 0.633 | 0.532 | 0.515 | 0.546 | 0.483 | 0.624 | 0.368 | 0.271 | 1.13 | 1.51 | 1.41 | 1.1 | 1.08 | 0.398 | 0.258 | 0.423 | 0.268 | 0.357 |
| NCI-H650 | 0.519 | 0.601 | 0.621 | 0.495 | 0.269 | 0.816 | 0.829 | 0.917 | 0.868 | 0.783 | 1.13 | 0.922 | 1.17 | 0.832 | 0.731 | 0.777 | 0.725 | 0.705 | 0.749 | 0.55 |
| NCI-H661 | 0.785 | 0.796 | 0.682 | 0.621 | 0.584 | 0.392 | 0.436 | 0.513 | 0.378 | 0.329 | 0.59 | 0.501 | 0.606 | 0.583 | 0.56 | 0.389 | 0.368 | 0.352 | 0.335 | 0.374 |
| NCI-H727 | 0.624 | 0.598 | 0.686 | 0.575 | 0.343 | 0.432 | 0.394 | 0.367 | 0.328 | 0.198 | 0.341 | 0.223 | 0.33 | 0.403 | 0.252 | 0.676 | 0.703 | 0.736 | 0.569 | 0.545 |
| NCI-H838 | 0.448 | 0.437 | 0.438 | 0.399 | 0.226 | 0.395 | 0.446 | 0.429 | 0.369 | 0.322 | 0.955 | 1.03 | 0.958 | 0.913 | 1 | 0.299 | 0.271 | 0.221 | 0.238 | 0.242 |
| NCI-H1355 | 0.383 | 0.338 | 0.402 | 0.396 | 0.258 | 0.274 | 0.411 | 0.499 | 0.459 | 0.364 | 0.805 | 0.782 | 0.843 | 0.79 | 0.804 | 0.515 | 0.427 | 0.556 | 0.568 | 0.468 |
| NCI-H1395 | 0.667 | 0.64 | 0.738 | 0.588 | 0.583 | 0.669 | 0.596 | 0.786 | 0.564 | 0.512 | 1.37 | 1.28 | 1.25 | 0.939 | 1.14 | 0.725 | 0.794 | 0.777 | 0.729 | 0.809 |
| NCI-H1437 | 0.941 | 0.995 | 0.922 | 0.784 | 0.197 | 0.441 | 0.482 | 0.434 | 0.347 | 0.317 | 0.899 | 1.2 | 1.05 | 0.979 | 0.969 | 0.404 | 0.388 | 0.388 | 0.418 | 0.323 |
| NCI-H1651 | 0.711 | 0.723 | 0.794 | 0.658 | 0.527 | 0.547 | 0.574 | 0.598 | 0.462 | 0.472 | 0.894 | 1.03 | 0.989 | 0.916 | 0.939 | 0.827 | 0.62 | 0.664 | 0.608 | 0.61 |
| NCI-H1666 | 0.873 | 0.825 | 0.84 | 0.812 | 0.459 | 0.286 | 0.39 | 0.403 | 0.534 | 0.327 | 0.789 | 0.848 | 0.807 | 0.843 | 0.911 | 0.591 | 0.617 | 0.575 | 0.674 | 0.603 |
| NCI-H1734 | 0.697 | 0.487 | 0.665 | 0.522 | 0.324 | 0.426 | – | 0.509 | 0.421 | 0.274 | 0.856 | – | 0.853 | 0.789 | 0.841 | 0.256 | 0.262 | 0.317 | 0.248 | 0.278 |
| NCI-H1755 | 0.712 | 0.838 | 0.71 | 0.699 | 0.575 | 0.423 | 0.403 | 0.515 | 0.449 | 0.426 | 0.927 | 0.995 | 1.02 | 0.978 | 0.979 | 0.585 | 0.562 | 0.66 | 0.51 | 0.49 |
| NCI-H1793 | 0.28 | 0.201 | 0.289 | 0.265 | 0.203 | 0.344 | 0.395 | 0.328 | 0.294 | 0.263 | 0.785 | 0.99 | 0.747 | 0.919 | 0.679 | 0.392 | 0.273 | 0.38 | 0.324 | 0.281 |
| NCI-H1915 | 0.679 | 0.71 | 0.727 | 0.674 | 0.603 | 0.956 | 1.15 | 1.12 | 0.774 | 0.97 | 1.1 | 1.18 | 1.11 | 1.12 | 1.08 | 0.452 | 0.48 | 0.41 | 0.418 | 0.428 |
| NCI-H1944 | 0.412 | 0.395 | 0.427 | 0.385 | 0.258 | 0.284 | 0.349 | 0.367 | 0.319 | 0.297 | 1.18 | 1.22 | 1.22 | 0.944 | 1.12 | 0.254 | 0.206 | 0.261 | 0.239 | 0.238 |
| NCI-H1975 | 0.708 | 0.805 | 0.808 | 0.619 | 0.417 | 0.268 | 0.298 | 0.314 | 0.246 | 0.226 | 0.819 | 1.01 | 1.09 | 0.884 | 0.934 | 0.804 | 0.917 | 0.759 | 0.712 | 0.708 |
| NCI-H1993 | 0.494 | 0.552 | 0.551 | 0.544 | 0.475 | 0.811 | 0.881 | 0.757 | 0.878 | 0.592 | 0.712 | 0.797 | 0.751 | 0.795 | 0.713 | 0.545 | 0.593 | 0.612 | 0.543 | 0.436 |
